# Assay results published in PubChem BioAssay (NCI).
#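 A five-concentration, 48-hour dose response in 96-well plates underlies each endpoint, interpolated linearly between surrounding concentrations. Abbreviation: GI50, concentration required for 50% inhibition of growth. TGI marks complete inhibition of growth.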
# Assays:
# Assay in all cases: DTP human tumour cell line panel, 48 h
# 786-0 renal = test system: 786-0 renal
# A498 renal = test system: A498 renal
# A549 NSCLC = test system: A549 NSCLC
# ACHN renal = test system: ACHN renal
# BT-549 breast = test system: BT-549 breast
# CAKI-1 renal = test system: CAKI-1 renal
# CCRF-CEM leukemia = test system: CCRF-CEM leukemia
# COLO 205 colon = test system: COLO 205 colon
# DU-145 prostate = test system: DU-145 prostate
# EKVX NSCLC = test system: EKVX NSCLC
# HCC-2998 colon = test system: HCC-2998 colon
# HCT-116 colon = test system: HCT-116 colon
# HCT-15 colon = test system: HCT-15 colon
# HL-60(TB) leukemia = test system: HL-60(TB) leukemia
# HOP-62 NSCLC = test system: HOP-62 NSCLC
# HOP-92 NSCLC = test system: HOP-92 NSCLC
# HS 578T breast = test system: HS 578T breast
# HT29 colon = test system: HT29 colon
# IGROV1 ovarian = test system: IGROV1 ovarian
# K-562 leukemia = test system: K-562 leukemia
# KM12 colon = test system: KM12 colon
# LOX IMVI melanoma = test system: LOX IMVI melanoma
# M14 melanoma = test system: M14 melanoma
# MALME-3M melanoma = test system: MALME-3M melanoma
# MCF7 breast = test system: MCF7 breast
# MDA-MB-231 breast = test system: MDA-MB-231 breast
# MDA-MB-435 = test system: MDA-MB-435
# MOLT-4 leukemia = test system: MOLT-4 leukemia
# NCI-H226 lung = test system: NCI-H226 lung
# NCI-H23 lung = test system: NCI-H23 lung
# NCI-H460 lung = test system: NCI-H460 lung
# NCI-H522 lung = test system: NCI-H522 lung
# NCI/ADR-RES ovarian = test system: NCI/ADR-RES ovarian
# OVCAR-3 ovarian = test system: OVCAR-3 ovarian
# OVCAR-4 ovarian = test system: OVCAR-4 ovarian
# OVCAR-5 ovarian = test system: OVCAR-5 ovarian
# OVCAR-8 ovarian = test system: OVCAR-8 ovarian
# PC-3 prostate = test system: PC-3 prostate
# RPMI-8226 leukemia = test system: RPMI-8226 leukemia
# RXF 393 renal = test system: RXF 393 renal
# SF-268 CNS = test system: SF-268 CNS
# SF-295 CNS = test system: SF-295 CNS
# SF-539 CNS = test system: SF-539 CNS
# SK-MEL-2 melanoma = test system: SK-MEL-2 melanoma
# SK-MEL-28 melanoma = test system: SK-MEL-28 melanoma
# SK-MEL-5 melanoma = test system: SK-MEL-5 melanoma
# SK-OV-3 ovarian = test system: SK-OV-3 ovarian
# SN12C renal = test system: SN12C renal
# SNB-19 CNS = test system: SNB-19 CNS
# SNB-75 CNS = test system: SNB-75 CNS
# SR leukemia = test system: SR leukemia
# SW-620 colon = test system: SW-620 colon
# T-47D breast = test system: T-47D breast
# TK-10 renal = test system: TK-10 renal
# U251 CNS = test system: U251 CNS
# UACC-257 melanoma = test system: UACC-257 melanoma
# UACC-62 melanoma = test system: UACC-62 melanoma
# UO-31 renal = test system: UO-31 renal
smiles,measurement,setting,value
Cc1cnc(Nc2ccc(N3CCN(C)CC3)cc2)nc1Nc1ccc(Cl)c(NS(=O)(=O)C(C)(C)C)c1,GI50,786-0 renal,208 nM
same,TGI,786-0 renal,1820 nM
same,GI50,A498 renal,178 nM
same,TGI,A498 renal,881 nM
same,GI50,A549 NSCLC,339 nM
same,TGI,A549 NSCLC,1810 nM
same,GI50,ACHN renal,90.2 nM
same,TGI,ACHN renal,2200 nM
same,GI50,BT-549 breast,872 nM
same,TGI,BT-549 breast,2590 nM
same,GI50,CAKI-1 renal,62.1 nM
same,TGI,CAKI-1 renal,2090 nM
same,GI50,CCRF-CEM leukemia,180 nM
same,TGI,CCRF-CEM leukemia,6830 nM
same,GI50,COLO 205 colon,94 nM
same,TGI,COLO 205 colon,543 nM
same,GI50,DU-145 prostate,303 nM
same,TGI,DU-145 prostate,11000 nM
same,GI50,EKVX NSCLC,311 nM
same,TGI,EKVX NSCLC,4400 nM
same,GI50,HCC-2998 colon,383 nM
same,TGI,HCC-2998 colon,1840 nM
same,GI50,HCT-116 colon,91.7 nM
same,TGI,HCT-116 colon,2730 nM
same,GI50,HCT-15 colon,168 nM
same,TGI,HCT-15 colon,3180 nM
same,GI50,HL-60(TB) leukemia,103 nM
same,TGI,HL-60(TB) leukemia,1020 nM
same,GI50,HOP-62 NSCLC,262 nM
same,TGI,HOP-62 NSCLC,3730 nM
same,GI50,HOP-92 NSCLC,170 nM
same,TGI,HOP-92 NSCLC,1590 nM
same,GI50,HS 578T breast,128 nM
same,TGI,HS 578T breast,1400 nM
same,GI50,HT29 colon,96.1 nM
same,TGI,HT29 colon,4190 nM
same,GI50,IGROV1 ovarian,154 nM
same,TGI,IGROV1 ovarian,2660 nM
same,GI50,K-562 leukemia,245 nM
same,TGI,K-562 leukemia,7740 nM
same,GI50,KM12 colon,94.3 nM
same,TGI,KM12 colon,5390 nM
same,GI50,LOX IMVI melanoma,169 nM
same,TGI,LOX IMVI melanoma,866 nM
same,GI50,M14 melanoma,112 nM
same,TGI,M14 melanoma,1780 nM
same,GI50,MALME-3M melanoma,690 nM
same,TGI,MALME-3M melanoma,2620 nM
same,GI50,MCF7 breast,79.5 nM
same,TGI,MCF7 breast,2490 nM
same,GI50,MDA-MB-231 breast,159 nM
same,TGI,MDA-MB-231 breast,2230 nM
same,GI50,MDA-MB-435,170 nM
same,TGI,MDA-MB-435,10700 nM
same,GI50,MOLT-4 leukemia,419 nM
same,TGI,MOLT-4 leukemia,11600 nM
same,GI50,NCI-H226 lung,230 nM
same,TGI,NCI-H226 lung,2090 nM
same,GI50,NCI-H23 lung,379 nM
same,TGI,NCI-H23 lung,6550 nM
same,GI50,NCI-H460 lung,267 nM
same,TGI,NCI-H460 lung,10300 nM
same,GI50,NCI-H522 lung,73 nM
same,TGI,NCI-H522 lung,1600 nM
same,GI50,NCI/ADR-RES ovarian,511 nM
same,TGI,NCI/ADR-RES ovarian,6090 nM
same,GI50,OVCAR-3 ovarian,324 nM
same,TGI,OVCAR-3 ovarian,2930 nM
same,GI50,OVCAR-4 ovarian,180 nM
same,TGI,OVCAR-4 ovarian,23700 nM
same,GI50,OVCAR-5 ovarian,219 nM
same,TGI,OVCAR-5 ovarian,13400 nM
same,GI50,OVCAR-8 ovarian,652 nM
same,TGI,OVCAR-8 ovarian,8100 nM
same,GI50,PC-3 prostate,408 nM
same,TGI,PC-3 prostate,16900 nM
same,GI50,RPMI-8226 leukemia,136 nM
same,TGI,RPMI-8226 leukemia,1310 nM
same,GI50,RXF 393 renal,136 nM
same,TGI,RXF 393 renal,959 nM
same,GI50,SF-268 CNS,474 nM
same,TGI,SF-268 CNS,3540 nM
same,GI50,SF-295 CNS,524 nM
same,TGI,SF-295 CNS,2950 nM
same,GI50,SF-539 CNS,434 nM
same,TGI,SF-539 CNS,1840 nM
same,GI50,SK-MEL-2 melanoma,310 nM
same,TGI,SK-MEL-2 melanoma,3760 nM
same,GI50,SK-MEL-28 melanoma,772 nM
same,TGI,SK-MEL-28 melanoma,2730 nM
same,GI50,SK-MEL-5 melanoma,312 nM
same,TGI,SK-MEL-5 melanoma,1510 nM
same,GI50,SK-OV-3 ovarian,97.2 nM
same,TGI,SK-OV-3 ovarian,808 nM
same,GI50,SN12C renal,542 nM
same,TGI,SN12C renal,12000 nM
same,GI50,SNB-19 CNS,1340 nM
same,TGI,SNB-19 CNS,18500 nM
same,GI50,SNB-75 CNS,< 25.6 nM
same,TGI,SNB-75 CNS,828 nM
same,GI50,SR leukemia,92 nM
same,TGI,SR leukemia,6260 nM
same,GI50,SW-620 colon,232 nM
same,TGI,SW-620 colon,5450 nM
same,GI50,T-47D breast,349 nM
same,TGI,T-47D breast,15500 nM
same,GI50,TK-10 renal,63.8 nM
same,TGI,TK-10 renal,936 nM
same,GI50,U251 CNS,840 nM
same,TGI,U251 CNS,11700 nM
same,GI50,UACC-257 melanoma,1360 nM
same,TGI,UACC-257 melanoma,2880 nM
same,GI50,UACC-62 melanoma,80.8 nM
same,TGI,UACC-62 melanoma,1680 nM
same,GI50,UO-31 renal,87.7 nM
same,TGI,UO-31 renal,1290 nM
